From article PMC5590943, “Pharmacological characterisation of S 47445, a novel positive allosteric modulator of AMPA receptors” (PLoS ONE, 2017)

How the values were obtained:
kainate receptors = test: Kainate-evoked currents, oocytes injected with rat cortex poly(A+) mRNA; settings: n = 3
Y (non-selective) = test: Binding assay, [3H]NPY
male adult Wistar rats = test: Spontaneous locomotor activity in rats; format: in vivo, rat; settings: 10, 30 and 100 mg/kg p.o. acute; n = 9
Method: Locomotor activity was recorded in male adult Wistar rats (180–200 g, Janvier Labs, Le Genest Saint Isle, France) placed in cages in a soundproof keeping room (open-field). A remote surveillance appliance allowed to observe and to record animal behaviour from an adjacent room. The movie camera was connected to an automatic analysis system (videotrack software, Viewpoint, Lissieu, France). The distance covered (cm) was automatically computed for each rat. Rats were orally administered 1 h before the test with S 47445 (10, 30 and 100 mg/kg) or vehicle. Locomotor activity was recorded during 30 min divided in 3 x 10-min periods. The total covered distance over 30 min was analysed using one way (dose) ANOVA, followed in case of significance of the dose effect by Dunnett’s test (versus vehicle controls). The significance threshold was set at 5%. Analyses were performed using SAS v9.2 software (SAS Institute, Cary, NC).

Phospholipase C = test: Enzyme and cell-based assay, [3H]PIP2 (0.3 mM)
[1] = molecular target: human GluK2 kainate receptors (Homo sapiens, UniProt Q13002); test: Glutamate-evoked current in oocytes expressing kainate receptors; settings: up to 100 μM; n = 12
Chain of human GluK2 kainate receptors (Q13002 32-908): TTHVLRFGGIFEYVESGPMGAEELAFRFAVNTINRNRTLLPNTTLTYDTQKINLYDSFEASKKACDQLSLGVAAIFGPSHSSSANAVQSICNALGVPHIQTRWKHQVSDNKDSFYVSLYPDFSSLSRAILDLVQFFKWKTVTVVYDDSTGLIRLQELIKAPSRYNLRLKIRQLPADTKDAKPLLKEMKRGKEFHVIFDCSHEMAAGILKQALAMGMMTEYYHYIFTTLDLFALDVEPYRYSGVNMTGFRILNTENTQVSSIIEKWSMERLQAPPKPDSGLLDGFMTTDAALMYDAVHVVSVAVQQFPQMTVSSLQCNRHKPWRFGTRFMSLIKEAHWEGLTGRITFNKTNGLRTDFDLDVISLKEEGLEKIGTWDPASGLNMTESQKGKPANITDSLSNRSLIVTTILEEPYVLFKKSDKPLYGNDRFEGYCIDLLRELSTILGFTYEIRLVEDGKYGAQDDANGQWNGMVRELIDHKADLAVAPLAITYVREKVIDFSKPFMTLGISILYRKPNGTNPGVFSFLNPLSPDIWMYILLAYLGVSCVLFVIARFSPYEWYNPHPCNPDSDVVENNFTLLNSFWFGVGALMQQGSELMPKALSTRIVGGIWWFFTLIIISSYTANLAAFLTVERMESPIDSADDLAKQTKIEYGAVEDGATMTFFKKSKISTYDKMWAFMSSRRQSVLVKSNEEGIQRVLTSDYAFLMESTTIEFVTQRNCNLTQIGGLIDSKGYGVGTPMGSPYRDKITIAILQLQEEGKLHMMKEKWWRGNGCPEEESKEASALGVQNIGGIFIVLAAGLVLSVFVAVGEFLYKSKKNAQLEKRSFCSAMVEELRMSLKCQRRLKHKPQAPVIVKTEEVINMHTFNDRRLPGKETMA

PDE4 (h) = test: Enzyme and cell-based assay, [3H]cAMP + cAMP (1 μM)
ATPase (Na+/K+) = test: Enzyme and cell-based assay, ATP (2 mM)
PDE1 = test: Enzyme and cell-based assay, [3H]cAMP + cAMP (1 μM)
male C57Bl/6 mice = test: Spontaneous alternation in a T-maze in mice; format: in vivo, mouse; settings: 180 s inter-trial delay
Method: Novel object recognition and T-maze studies were conducted respectively in male OFA rats (150–175 g, Charles River, Saint-Germain-Nuelles, France) and male C57Bl/6 mice (5.5–6.5 month-old, Charles River, Saint-Germain-Nuelles, France). Animals were housed in collective cages with continuous access to tap water and food on a 12 h light-dark cycle, in a temperature-controlled (21 ± 1°C) and ventilated room. On completion of studies subjects were euthanized by either CO2 inhalation or intraperitoneal (i.p.) lethal pentobarbital injection. The novel object recognition test was used as the primary in vivo screening assay to identify AMPA-PAMs. The T-maze task was performed using a modified continuous performance procedure previously described in mice. […]
Behavioral testing was conducted in a T-shaped maze made of grey Plexiglas using mice. […] Photoelectric cells detected the position of the mouse on the maze. […]
Both alternation performance and latency of entry were assessed. […] The successive sequence of visits for the 7 first trials determined the level of alternation. A percentage of alternation was calculated for each mouse, and corresponded to the number of alternations performed relative to the number maximal of alternation (n = 6). […] The mean latency of entry from trial 2 to trial 7 was calculated for each mouse. […]

BZD (central) = test: Binding assay, [3H]flunitrazepam
NMDA = test: Binding assay, [3H]CGP 39653, rat cerebral cortex membranes

## O=C1c2cc3nnn(CCc4cccc(F)c4)c(=O)c3cc2OCN1C1CC1 [S 47445, 8-cyclopropyl-3-[2-(3-fluorophenyl)ethyl]-7,8-dihydro-3H-[1,3]oxazino[6,5-g][1,2,3]benzotriazine-4,9-dione]
Kainate receptors
  Effect at kainate-evoked currents: absence of effect
Y (non-selective); S 47445 1.0E-05 M
  % Inhibition of control specific binding: -6%
Y (non-selective); S 47445 1.0E-07 M
  % Inhibition of control specific binding: -4%
Male adult Wistar rats
  Total distance of spontaneous locomotor activity: did not significantly modify
Phospholipase C; S 47445 1.0E-05 M
  % Inhibition of control specific binding: 7%
Phospholipase C; S 47445 1.0E-07 M
  % Inhibition of control specific binding: -5%
[1]
  Effect on glutamate-evoked current: did not modify glutamate-evoked current
PDE4 (h); S 47445 1.0E-05 M
  % Inhibition of control specific binding: -12%
PDE4 (h); S 47445 1.0E-07 M
  % Inhibition of control specific binding: 20%
ATPase (Na+/K+); S 47445 1.0E-05 M
  % Inhibition of control specific binding: -2%
ATPase (Na+/K+); S 47445 1.0E-07 M
  % Inhibition of control specific binding: -3%
PDE1; S 47445 1.0E-05 M
  % Inhibition of control specific binding: 10%
PDE1; S 47445 1.0E-07 M
  % Inhibition of control specific binding: 1%
Male C57Bl/6 mice; 0.3 mg/kg i.p. acute, p≤0.05
  Spontaneous alternation versus vehicle: improved the performance of spontaneous alternation
Male C57Bl/6 mice; 1 mg/kg i.p. acute, p = 0.07
  Spontaneous alternation versus vehicle: improved the performance of spontaneous alternation
BZD (central); S 47445 1.0E-05 M
  % Inhibition of control specific binding: -21%
BZD (central); S 47445 1.0E-07 M
  % Inhibition of control specific binding: -2%
NMDA; S 47445 1.0E-05 M
  % Inhibition of control specific binding: -1%
NMDA; S 47445 1.0E-07 M
  % Inhibition of control specific binding: 2%
NMDA; read-out: Ki, glutamate binding site, n = 2
  Ki: > 10 µM
